Experimental data from PubChem BioAssay AID1963842 (Molecular Pharmacology Branch, DTP, NCI, 2024).

Test system: 677734-321-R-J1-PDC complex spheroid viability
Assay: Anticancer human tumor 677734-321-R-J1-PDC patient-derived soft tissue sarcoma cell line growth inhibition [POLQ]
Conditions: for IC50: curve of first compound; for viability, T/C: stronger effect = lower value
Method in brief: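 PDC + HUVEC + MSC complex spheroids; POLQ inhibitors ± partner drugs; top conc. at/near clinical Cmax, else 10 microM (SN-38 1 microM), half-log dilutions; 37 degrees C, 5% CO2.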

[1] = second compound 0.0316 µM, first compound 0.0316 µM
[2] = second compound 0.0316 µM, first compound 0.1 µM
[3] = second compound 0.0316 µM, first compound 0.316 µM
[4] = second compound 0.0316 µM, first compound 1 µM
[5] = second compound 0.0316 µM, first compound 3.16 µM
[6] = second compound 0.0316 µM, first compound 10 µM
[7] = second compound 0.1 µM, first compound 0.0316 µM
[8] = second compound 0.1 µM, first compound 0.1 µM
[9] = second compound 0.1 µM, first compound 0.316 µM
[10] = second compound 0.1 µM, first compound 1 µM
[11] = second compound 0.1 µM, first compound 3.16 µM
[12] = second compound 0.1 µM, first compound 10 µM
[13] = second compound 0.316 µM, first compound 0.0316 µM
[14] = second compound 0.316 µM, first compound 0.1 µM
[15] = second compound 0.316 µM, first compound 0.316 µM
[16] = second compound 0.316 µM, first compound 1 µM
[17] = second compound 0.316 µM, first compound 3.16 µM
[18] = second compound 0.316 µM, first compound 10 µM
[19] = second compound 1 µM, first compound 0.0316 µM
[20] = second compound 1 µM, first compound 0.1 µM
[21] = second compound 1 µM, first compound 0.316 µM
[22] = second compound 1 µM, first compound 1 µM
[23] = second compound 1 µM, first compound 3.16 µM
[24] = second compound 1 µM, first compound 10 µM
[25] = second compound 3.16 µM, first compound 0.0316 µM
[26] = second compound 3.16 µM, first compound 0.1 µM
[27] = second compound 3.16 µM, first compound 0.316 µM
[28] = second compound 3.16 µM, first compound 1 µM
[29] = second compound 3.16 µM, first compound 3.16 µM
[30] = second compound 3.16 µM, first compound 10 µM
[31] = second compound 10 µM, first compound 0.0316 µM
[32] = second compound 10 µM, first compound 0.1 µM
[33] = second compound 10 µM, first compound 0.316 µM
[34] = second compound 10 µM, first compound 1 µM
[35] = second compound 10 µM, first compound 3.16 µM
[36] = second compound 10 µM, first compound 10 µM
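Further: spheroids exposed to compounds for one week.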
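Wherever viability, T/C is given: 100% = vehicle DMSO treated spheroids.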

In the case of `C#Cc1c(F)ccc2cc(O)cc(-c3ncc4c(N5CC6CCC(C5)N6)nc(OCC56CCCN5CC(F)C6)nc4c3F)c12` (stereo unspecified) + COC1C(OC(N)=O)C(O)C(Oc2ccc3c(O)c(NC(=O)c4ccc(O)c(CC=C(C)C)c4)c(=O)oc3c2C)OC1(C)C, the IC50 (second compound 0.0316 µM) is reported as > 10 µM, the IC50 (second compound 0.1 µM) is reported as > 10 µM and the IC50 (second compound 0.316 µM) is reported as > 10 µM. The IC50 (second compound 1 µM) was > 10 µM, the IC50 (second compound 3.16 µM) was > 10 µM and the IC50 (second compound 10 µM) was > 10 µM. The viability, T/C [1] was 108%, the viability, T/C [2] was 92.2% and the viability, T/C [3] was 104%. It also gave a viability, T/C [4] of 104%, a viability, T/C [5] of 111% and a viability, T/C [6] of 98%. The viability, T/C [7] was 100%, the viability, T/C [8] was 104% and the viability, T/C [9] was 95.1%. For the same compound, the viability, T/C [10] was 99.7%, the viability, T/C [11] was 104% and the viability, T/C [12] was 98.7%. For the same compound, the viability, T/C [13] was 108%, the viability, T/C [14] was 98.8% and the viability, T/C [15] was 102%. For the same compound, the viability, T/C [16] was 107%, the viability, T/C [17] was 107% and the viability, T/C [18] was 102%. It also gave a viability, T/C [19] of 104%, a viability, T/C [20] of 97.5% and a viability, T/C [21] of 111%. It also gave a viability, T/C [22] of 109%, a viability, T/C [23] of 103% and a viability, T/C [24] of 103%. It also gave a viability, T/C [25] of 103%, a viability, T/C [26] of 95.5% and a viability, T/C [27] of 101%. For the same compound, the viability, T/C [28] was 105%, the viability, T/C [29] was 103% and the viability, T/C [30] was 102%. For the same compound, the viability, T/C [31] was 112%, the viability, T/C [32] was 102% and the viability, T/C [33] was 103%. The viability, T/C [34] was 100%, the viability, T/C [35] was 98.7% and the viability, T/C [36] was 111%.

For `C=CC(=O)N1CCN(c2nc(=O)n(-c3c(C)ccnc3C(C)C)c3nc(-c4c(O)cccc4F)c(F)cc23)C(C)C1` (stereo unspecified) + COC1C(OC(N)=O)C(O)C(Oc2ccc3c(O)c(NC(=O)c4ccc(O)c(CC=C(C)C)c4)c(=O)oc3c2C)OC1(C)C, the IC50 (second compound 0.0316 µM) was > 10 µM, the IC50 (second compound 0.1 µM) was > 10 µM and the IC50 (second compound 0.316 µM) was > 10 µM. For the same compound, the IC50 (second compound 1 µM) was > 10 µM, the IC50 (second compound 3.16 µM) was > 10 µM and the IC50 (second compound 10 µM) was > 10 µM. For the same compound, the viability, T/C [1] was 109%, the viability, T/C [2] was 92.4% and the viability, T/C [3] was 102%. It also gave a viability, T/C [4] of 97.1%, a viability, T/C [5] of 104% and a viability, T/C [6] of 86.4%. It also gave a viability, T/C [7] of 102%, a viability, T/C [8] of 104% and a viability, T/C [9] of 103%. The viability, T/C [10] was 102%, the viability, T/C [11] was 99.9% and the viability, T/C [12] was 81.7%. For the same compound, the viability, T/C [13] was 102%, the viability, T/C [14] was 97.3% and the viability, T/C [15] was 106%. It also gave a viability, T/C [16] of 101%, a viability, T/C [17] of 107% and a viability, T/C [18] of 84.8%. It also gave a viability, T/C [19] of 98.4%, a viability, T/C [20] of 99.3% and a viability, T/C [21] of 104%. It also gave a viability, T/C [22] of 113%, a viability, T/C [23] of 105% and a viability, T/C [24] of 89.2%. The viability, T/C [25] was 102%, the viability, T/C [26] was 101% and the viability, T/C [27] was 105%. For the same compound, the viability, T/C [28] was 106%, the viability, T/C [29] was 106% and the viability, T/C [30] was 80.7%. It also gave a viability, T/C [31] of 107%, a viability, T/C [32] of 103% and a viability, T/C [33] of 96%. The viability, T/C [34] was 106%, the viability, T/C [35] was 95.8% and the viability, T/C [36] was 86.7%.

`CC(C)n1c(=O)n(C)c2cnc3cc(F)c(-c4ccc(OCCCN5CCCCC5)nc4)cc3c21` + COC1C(OC(N)=O)C(O)C(Oc2ccc3c(O)c(NC(=O)c4ccc(O)c(CC=C(C)C)c4)c(=O)oc3c2C)OC1(C)C was tested, and the IC50 (second compound 0.0316 µM) was > 10 µM, the IC50 (second compound 0.1 µM) was > 10 µM and the IC50 (second compound 0.316 µM) was > 10 µM. The IC50 (second compound 1 µM) was > 10 µM, the IC50 (second compound 3.16 µM) was > 10 µM and the IC50 (second compound 10 µM) was > 10 µM. The viability, T/C [1] was 117%, the viability, T/C [2] was 104% and the viability, T/C [3] was 109%. For the same compound, the viability, T/C [4] was 107%, the viability, T/C [5] was 111% and the viability, T/C [6] was 110%. It also gave a viability, T/C [7] of 104%, a viability, T/C [8] of 109% and a viability, T/C [9] of 106%. It also gave a viability, T/C [10] of 111%, a viability, T/C [11] of 117% and a viability, T/C [12] of 101%. For the same compound, the viability, T/C [13] was 108%, the viability, T/C [14] was 107% and the viability, T/C [15] was 106%. For the same compound, the viability, T/C [16] was 113%, the viability, T/C [17] was 112% and the viability, T/C [18] was 106%. The viability, T/C [19] was 108%, the viability, T/C [20] was 102% and the viability, T/C [21] was 113%. For the same compound, the viability, T/C [22] was 113%, the viability, T/C [23] was 109% and the viability, T/C [24] was 107%. The viability, T/C [25] was 107%, the viability, T/C [26] was 107% and the viability, T/C [27] was 106%. The viability, T/C [28] was 115%, the viability, T/C [29] was 104% and the viability, T/C [30] was 107%. For the same compound, the viability, T/C [31] was 109%, the viability, T/C [32] was 106% and the viability, T/C [33] was 111%. It also gave a viability, T/C [34] of 113%, a viability, T/C [35] of 106% and a viability, T/C [36] of 102%.
